For 13 compounds, T/C results are on record in PubChem BioAssay AID216 (DTP/NCI, 2004).

This assay deals with BDF1 mice, P288 leukemia ip, survival T/C. Nature of the assay: NCI In Vivo Anticancer Drug Screen. Data for tumor model P288 Lymphocytic Leukemia (intraperitoneal) in B6D2F1 (BDF1) mice. The note with it: endpoint: survival time, mean or median, higher = longer survival. As to the method:
The antitumor activity of compounds was measured in mice bearing transplantable tumors. Survival or tumor size were measured and the results are expressed as the measurement made in the treated group (T) divided by the measurement made in the vehicle treated control group (C). The tumor model used in this assay is P288 Lymphocytic Leukemia (intraperitoneal) in B6D2F1 (BDF1) mice

The mark [1] stands for this setting: dose: 8.0 micrograms/kg/injection, schedule: Q01DX Z (ip), vehicle: carboxymethylcellulose (CMC).
[2] abbreviates: dose: 16.0 micrograms/kg/injection, schedule: Q01DX Z (ip), vehicle: carboxymethylcellulose (CMC).
Where [3] appears, read: dose: 31.0 micrograms/kg/injection, schedule: Q01DX Z (ip), vehicle: carboxymethylcellulose (CMC).
[4] abbreviates: dose: 31.3 micrograms/kg/injection, schedule: Q01DX010 (ip), vehicle: saline.
The mark [5] stands for this setting: dose: 62.5 micrograms/kg/injection, schedule: Q01DX010 (ip), vehicle: saline.
[6] abbreviates: dose: 125.0 micrograms/kg/injection, schedule: Q01DX010 (ip), vehicle: saline.
Setting [7] is: dose: 250.0 micrograms/kg/injection, schedule: Q01DX010 (ip), vehicle: saline.
Where [8] appears, read: dose: 31.25 mg/kg/injection, schedule: Q01DX Z (ip), vehicle: carboxymethylcellulose (CMC).
[9] abbreviates: dose: 62.5 mg/kg/injection, schedule: Q01DX Z (ip), vehicle: carboxymethylcellulose (CMC).
[10] abbreviates: dose: 31.0 mg/kg/injection, schedule: Q01DX Z (sc), vehicle: steriod suspending solution.
[11] abbreviates: dose: 62.5 mg/kg/injection, schedule: Q01DX Z (sc), vehicle: steriod suspending solution.
Setting [12] is: dose: 125.0 mg/kg/injection, schedule: Q01DX Z (sc), vehicle: steriod suspending solution.
[13] abbreviates: dose: 250.0 mg/kg/injection, schedule: Q01DX Z (sc), vehicle: steriod suspending solution.
Where [14] appears, read: dose: 500.0 mg/kg/injection, schedule: Q01DX Z (sc), vehicle: steriod suspending solution.
Where [15] appears, read: dose: 12.5 mg/kg/injection, schedule: Q01DX Z (ip), vehicle: carboxymethylcellulose (CMC).
Setting [16] is: dose: 16.0 mg/kg/injection, schedule: Q01DX Z (sc), vehicle: steriod suspending solution.

Where “and” joins values, the source holds several entries; their conditions need not be identical. Identical values can stand only once. Toxic doses and inconclusive results are not listed.

Turning to `N#[N+]c1cnc([O-])[nH]c1=O`, the T/C is, setting by setting: (dose: 0.63 mg/kg/injection, schedule: Q01DX Z (ip), vehicle: carboxymethylcellulose (CMC)) 112 % of control; (dose: 1.25 mg/kg/injection, schedule: Q01DX010 (ip), vehicle: saline) 105 % of control; (dose: 1.25 mg/kg/injection, schedule: Q01DX Z (ip), vehicle: carboxymethylcellulose (CMC)) 117 % of control; (dose: 2.5 mg/kg/injection, schedule: Q01DX010 (ip), vehicle: saline) 104 % of control; (dose: 10.0 mg/kg/injection, schedule: Q01DX010 (ip), vehicle: saline) 155 % of control.

For `O[C@H](CN1CC1)[C@@H](O)CN1CC1`, the T/C by setting is: under setting [1], 113 % of control; under setting [2], 112 % of control; under setting [3], 118 % of control; under setting [4], 100 % of control; under setting [5], 106 % of control; under setting [6], 112 % of control. In addition, the T/C reads like this: under setting [7], 150 % of control; (dose: 250.0 micrograms/kg/injection, schedule: Q01DX Z (ip), vehicle: carboxymethylcellulose (CMC)) 170 % of control; (dose: 500.0 micrograms/kg/injection, schedule: Q01DX Z (ip), vehicle: carboxymethylcellulose (CMC)) 172 % of control and 200 % of control.

For the compound `CCn1cnc2c(=S)nc[nH]c21`, the T/C (dose: 15.6 mg/kg/injection, schedule: Q01DX Z (ip), vehicle: carboxymethylcellulose (CMC)) was 92 % of control; the T/C under setting [8] was 92 % of control; the T/C (dose: 62.5 mg/kg/injection, schedule: Q01DX010 (ip), vehicle: saline) was 90 % of control; the T/C under setting [9] is 93 % of control; the T/C (dose: 125.0 mg/kg/injection, schedule: Q01DX010 (ip), vehicle: saline) was 90 % of control.

As for `CC[C@@H](c1ccc(O)cc1)[C@@H](CC)c1ccc(O)cc1`, the T/C reads like this: under setting [10], 98 % of control; under setting [11], 98 % of control; under setting [12], 115 % of control and 97 % of control and 100 % of control; under setting [13], 93 % of control and 98 % of control; under setting [14], 107 % of control and 95 % of control; (dose: 1000.0 mg/kg/injection, schedule: Q01DX Z (sc), vehicle: steriod suspending solution) 93 % of control.

As to `CSCS(=O)C[C@H](CO)NC(=O)/C=C/c1c(C)[nH]c(=O)[nH]c1=O` (some centres not stated), the T/C runs as follows: (dose: 0.06 mg/kg/injection, schedule: Q01DX Z (ip), vehicle: saline) 102 % of control; (dose: 0.12 mg/kg/injection, schedule: Q01DX Z (ip), vehicle: saline) 96 % of control; (dose: 0.25 mg/kg/injection, schedule: Q01DX Z (ip), vehicle: saline) 107 % of control and 96 % of control; (dose: 0.5 mg/kg/injection, schedule: Q01DX Z (ip), vehicle: saline) 90 % of control and 96 % of control; (dose: 1.0 mg/kg/injection, schedule: Q01DX Z (ip), vehicle: saline) 97 % of control.

For `CN(Cc1cnc2nc(N)nc(N)c2n1)c1c(Cl)cc(C(=O)NC(CCC(=O)O)C(=O)O)cc1Cl` (configuration not stated), the T/C was 232 % of control under setting [15]; 300 % of control (dose: 25.0 mg/kg/injection, schedule: Q01DX Z (ip), vehicle: carboxymethylcellulose (CMC)); 320 % of control (dose: 50.0 mg/kg/injection, schedule: Q01DX Z (ip), vehicle: carboxymethylcellulose (CMC)); 288 % of control (dose: 100.0 mg/kg/injection, schedule: Q01DX Z (ip), vehicle: carboxymethylcellulose (CMC)).

With `CN(N=O)C(=O)NC(C=O)C(O)C(O)C(O)CO` (configuration not stated), the T/C (dose: 50.0 mg/kg/injection, schedule: Q01DX Z (ip), vehicle: saline) was 111 % of control and the T/C (dose: 100.0 mg/kg/injection, schedule: Q01DX Z (ip), vehicle: saline) is 122 % of control.

Turning to `CS(=O)(=O)OCCCl`, the T/C (dose: 3.1 mg/kg/injection, schedule: Q01DX Z (ip), vehicle: carboxymethylcellulose (CMC)) was 88 % of control; the T/C (dose: 6.25 mg/kg/injection, schedule: Q01DX Z (ip), vehicle: carboxymethylcellulose (CMC)) is 89 % of control; the T/C under setting [15] is 86 % of control and 89 % of control; the T/C (dose: 18.8 mg/kg/injection, schedule: Q01DX010 (ip), vehicle: saline) was 88 % of control and 95 % of control; the T/C (dose: 37.5 mg/kg/injection, schedule: Q01DX010 (ip), vehicle: saline) is 90 % of control and 94 % of control; the T/C (dose: 75.0 mg/kg/injection, schedule: Q01DX010 (ip), vehicle: saline) was 90 % of control and 100 % of control. Further, the T/C (dose: 150.0 mg/kg/injection, schedule: Q01DX010 (ip), vehicle: saline) is 105 % of control and 90 % of control.

Take `N#Cc1cn(C2OC(CO)C(O)C2O)c2ncnc(N)c12` (configuration not stated): the T/C is 114 % of control (dose: 0.12 mg/kg/injection, schedule: Q01DX Z (ip), vehicle: carboxymethylcellulose (CMC)); 106 % of control (dose: 0.25 mg/kg/injection, schedule: Q01DX Z (ip), vehicle: carboxymethylcellulose (CMC)); 93 % of control (dose: 0.5 mg/kg/injection, schedule: Q01DX Z (ip), vehicle: carboxymethylcellulose (CMC)); 106 % of control (dose: 1.0 mg/kg/injection, schedule: Q01DX Z (ip), vehicle: carboxymethylcellulose (CMC)); 103 % of control under setting [1]; 103 % of control under setting [2]. The T/C is, setting by setting: under setting [3], 97 % of control; under setting [4], 155 % of control; under setting [5], 105 % of control; under setting [6], 105 % of control; under setting [7], 105 % of control.

Take `C[C@]12CCC(=O)C=C1CC[C@@H]1[C@@H]2CC[C@@]2(C)[C@H]1CC[C@]2(C)O`: the T/C is, setting by setting: under setting [16], 104 % of control; under setting [10], 108 % of control; under setting [11], 110 % of control and 116 % of control; under setting [12], 100 % of control; under setting [13], 100 % of control; under setting [14], 101 % of control.

For `c1ccc(CNc2ncnc3[nH]ncc23)cc1`, the T/C reads like this: (dose: 1.95 mg/kg/injection, schedule: Q01DX Z (ip), vehicle: carboxymethylcellulose (CMC)) 91 % of control; (dose: 3.9 mg/kg/injection, schedule: Q01DX Z (ip), vehicle: carboxymethylcellulose (CMC)) 97 % of control; (dose: 7.8 mg/kg/injection, schedule: Q01DX Z (ip), vehicle: carboxymethylcellulose (CMC)) 90 % of control; (dose: 8.0 mg/kg/injection, schedule: Q01DX010 (ip), vehicle: saline) 121 % of control and 93 % of control; (dose: 16.0 mg/kg/injection, schedule: Q01DX010 (ip), vehicle: saline) 112 % of control and 114 % of control; (dose: 32.0 mg/kg/injection, schedule: Q01DX010 (ip), vehicle: saline) 118 % of control.

In the case of `Clc1ncnc2nc[nH]c12`, the T/C (dose: 7.5 mg/kg/injection, schedule: Q01DX010 (ip), vehicle: saline) was 88 % of control; the T/C (dose: 30.0 mg/kg/injection, schedule: Q01DX010 (ip), vehicle: saline) was 94 % of control; the T/C under setting [8] is 86 % of control and 95 % of control; the T/C under setting [9] is 101 % of control and 102 % of control and 105 % of control; the T/C (dose: 125.0 mg/kg/injection, schedule: Q01DX Z (ip), vehicle: carboxymethylcellulose (CMC)) is 112 % of control and 114 % of control and 97 % of control; the T/C (dose: 250.0 mg/kg/injection, schedule: Q01DX Z (ip), vehicle: carboxymethylcellulose (CMC)) was 106 % of control (2×) and 110 % of control.

Consider `CC[C@H](c1ccc(O)cc1)[C@@H](CC)c1ccc(O)cc1`, for which the T/C (dose: 8.0 mg/kg/injection, schedule: Q01DX Z (sc), vehicle: steriod suspending solution) is 90 % of control; the T/C under setting [16] is 93 % of control; the T/C under setting [10] was 97 % of control; the T/C under setting [11] was 88 % of control and 98 % of control; the T/C under setting [12] is 90 % of control.
